# Results published in patent US7041869B2, “Transgenic luciferase mouse” (Sloan-Kettering Institute for Cancer Research, priority 2002, dated 2006).
# Entries after “also recorded” stand apart in the source; their conditions may differ.
# Assays:
# PDGF-driven gliomas = assay: Elux bioluminescence imaging of PDGF-induced gliomas during treatment; type: in vivo, mice
# Method: As an illustration of the use of Elux in somatic cell gene transfer models, the inventors have generated gliomas in mice harboring the Elux transgene. The Elux transgenic line was crossed with the Ntv-a transgenic mouse line. These doubly transgenic mice were then infected at birth with RCAS-PDGF. The mice were injected intracranially with one microliter containing 10^4 DF-1 cells, a chicken fibroblast cell line that are infected with and producing the RCAS-PDGF virus. This vector encodes the PDGF B coding region downstream of the env gene and expressed from the LTR on a message that splices out the viral genes. The injection passed through the striatum, just anterior to the ventricle, until the tip of the needle just touches the skull base. The producer cells survived for only a few days within the parenchyma of the mouse brain and during this time they produced virus and infected adjacent cells expressing the receptor for RCAS, tv-a. The mice were then observed for the development of signs of intracranial pathology including weight loss, lethargy, and macrocephaly. These mice were analyzed for expression of luciferase by i.v. injection with luciferin and imaging for bioluminescence with a CCD camera as discussed in detail below.
# Animals were weighed prior to the acquisition session for proper dosage calculations. […] The solution was sterilized by filtration through 0.22 μm syringe filter. Individual dosages were drawn into sterile insulin syringes for each animal based on the body weight. Prior to the injection, individual syringes were kept in dark.
# Oxygen flow was turned on and set for 1 l/min flow. […] For the induction of anesthesia, the animal was placed into the induction chamber and general activity and respiration rate were monitored. […]
# Bioluminescent acquisition was performed according to the IVIS™ Imaging System (Xenogen). […] It was selected empirically, based on prior in vitro characterization of luminescence of transfected cells and the intensity of luminescence signal obtained from the current study. […]
# [1] = system: PDGF signaling in glial cell culture; settings: previously demonstrated; cited from earlier work
smiles,measurement,setting,value
Clc1ccc(Nc2nnc(Cc3ccncc3)c3ccccc23)cc1 [PTK787],loss in light emission (bioluminescence),"PDGF-driven gliomas; Ntv-a/Elux bitransgenic mice with RCAS-PDGF gliomas, 25 mg/kg i.p. daily, in 24–36 hours",50%
same,relative falloff of light production across tumors of various light outputs,"PDGF-driven gliomas; four consecutive mice with PDGF-induced gliomas, bioluminescence quantified daily during treatment",essentially parallel responses of decreases in light emission over time; also recorded: proportionally similar
same,effect on PDGF signaling in glial cell culture,[1],capable of reversing the effects of PDGF signaling
